Assay results from publication PMC12822184, “Targeting E2F8 sensitizes gemcitabine-resistant gallbladder cancer to PARP inhibitors by disrupting RRM2-driven DNA repair” (Journal of Experimental & Clinical Cancer Research : CR, 2025).

Experiments:
E2F8 DNA-binding domain [1] = target: T1, E2F8 DNA-binding domain (Homo sapiens, UniProt A0AVK6, R156A/R314A); experiment: SPR (Biacore 8K, CM5 amine coupling, steady-state […])
T1 construct: N-terminal thioredoxin-6xHis tag removed by TEV protease; E. coli Rosetta (DE3) pLysS
T1 sequence (A0AVK6 110-350 R156A/R314A): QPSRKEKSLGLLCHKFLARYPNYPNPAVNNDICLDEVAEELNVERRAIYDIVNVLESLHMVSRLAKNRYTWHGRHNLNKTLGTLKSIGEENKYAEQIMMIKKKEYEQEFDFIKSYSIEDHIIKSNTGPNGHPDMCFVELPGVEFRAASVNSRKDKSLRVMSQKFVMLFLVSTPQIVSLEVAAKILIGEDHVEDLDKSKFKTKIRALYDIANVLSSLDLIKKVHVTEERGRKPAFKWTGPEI

E2F8 DNA-binding domain [2] = target: T2, E2F8 DNA-binding domain (Homo sapiens, UniProt A0AVK6); experiment: as above
T2 construct: N-terminal thioredoxin-6xHis tag removed by TEV protease; E. coli Rosetta (DE3) pLysS
T2 sequence (A0AVK6 110-350): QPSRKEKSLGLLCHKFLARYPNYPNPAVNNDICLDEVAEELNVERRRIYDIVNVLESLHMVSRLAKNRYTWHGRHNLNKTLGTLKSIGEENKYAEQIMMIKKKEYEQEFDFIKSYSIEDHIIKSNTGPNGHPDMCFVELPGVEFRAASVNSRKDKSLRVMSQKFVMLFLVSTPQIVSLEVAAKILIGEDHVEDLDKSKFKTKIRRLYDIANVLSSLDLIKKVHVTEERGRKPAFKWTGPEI

Kd (E2F8 DNA-binding domain [1]): 7.96 µM
Kd (E2F8 DNA-binding domain [2]): 0.15 µM
SMILES: O=C(Nc1ccccc1C(=O)O)c1cccc(N2C(=O)c3ccc(C(=O)Nc4ccccc4C(=O)O)cc3C2=O)c1 [HIT-4]
